Measured values taken from patent publication US10597388B2, “Pyridazinone herbicides” (FMC CORPORATION, priority 2014, dated 2020).

Key:
Assay type in all cases: in vivo
[1] = test system: kochia (Kochia scoparia); test: Test C greenhouse herbicide test, postemergence; settings: for Plant response rating, Kochia: Postemergence
In short: (§1)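 Seedlings are raised in pots of peat moss–vermiculite medium with starter nutrients, then receive postemergence test chemical at the 1- to 4-leaf stage. They are kept in the greenhouse 13 to 15 d and scored visually versus controls, 0 meaning no effect and 100 complete control.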

[2] = test system: oat, wild (wild oat, Avena fatua); test: Test C greenhouse herbicide test, postemergence; settings: for Plant response rating, Oat, Wild: Postemergence
In short: as §1

[3] = test system: corn (Zea mays); test: Test C greenhouse herbicide test, pre- and postemergence
In short: (§2)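 Each species was treated both before emergence, in a loam–sand soil mix, and after emergence, as 1- to 4-leaf seedlings in peat-based potting medium. Plants stayed in the greenhouse 13 to 15 d, then were scored from 0 (no effect) to 100 (complete control) relative to controls.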

[4] = test system: morningglory (Ipomoea coccinea); test: as above
In short: as §2

[5] = test system: velvetleaf (Abutilon theophrasti); test: as above
In short: as §2

[6] = test system: soybean (Glycine max); test: as above
In short: as §2

[7] = test system: wheat (winter wheat, Triticum aestivum); test: as above
In short: as §2

[8] = test system: ragweed (common ragweed, Ambrosia elatior); test: as above
In short: as §2

[9] = test system: pigweed (Amaranthus retroflexus); test: as above
In short: as §2

[10] = test system: crabgrass, large (large crabgrass, Digitaria sanguinalis); test: as above
In short: as §2

[11] = test system: barnyardgrass (Echinochloa crus-galli); test: as above
In short: as §2

[12] = test system: oilseed rape (Brassica napus); test: as above
In short: as §2

[13] = test system: waterhemp (common waterhemp, Amaranthus rudis); test: as above
In short: as §2

[14] = test system: foxtail, giant (giant foxtail, Setaria faberii); test: as above
In short: as §2

[15] = test system: johnsongrass (Sorghum halepense); test: as above
In short: as §2

[16] = test system: blackgrass (Alopecurus myosuroides); test: as above
In short: as §2

[17] = test system: galium (catchweed bedstraw, Galium aparine); test: as above
In short: as §2

[18] = 125 g ai/ha, scale 0 to 100, 0 is no effect, 100 is complete control
[19] = 250 g ai/ha, scale 0 to 100, 0 no effect, 100 complete control, 13 to 15 d
[20] = postemergence, 62 g ai/ha, scale 0 to 100, 0 no effect, 100 complete control
[21] = Postemergence, 31 g ai/ha, 0 to 100 scale (0 no effect, 100 complete control)
[22] = Postemergence, 125 g ai/ha, scale 0 to 100, 0 is no effect, 100 is complete control
[23] = Postemergence, 250 g ai/ha, scale 0 to 100, 0 no effect, 100 complete control, 13 to 15 d
[24] = Preemergence, 31 g ai/ha, scale 0 to 100, 0 is no effect, 100 is complete control
[25] = Preemergence, 62 g ai/ha, scale 0 to 100, 0 is no effect, 100 is complete control
[26] = Preemergence, 125 g ai/ha, scale 0 to 100, 0 is no effect, 100 is complete control
[27] = Preemergence, 250 g ai/ha, scale 0 to 100 (0 no effect, 100 complete control)

C#CCOC(=O)Oc1c(C)nn(C)c(=O)c1-c1c(C)sc2ccc(C)cc12 [Compound 87]
Plant response rating, Kochia [1, 18]: 90
Plant response rating, Kochia [1, 19]: 95
Kochia plant response rating [1, 20]: 90
Plant response rating, Oat, Wild [2, 18]: 85
Plant response rating, Oat, Wild [2, 19]: 90
Oat, Wild plant response rating [2, 20]: 90
Corn plant response rating [3, 21]: 5
Plant response rating, Corn [3, 22]: 30
Plant response rating, Corn [3, 23]: 5
Plant response rating, Corn [3, 24]: 0
Plant response rating, Corn [3, 25]: 10
Plant response rating, Corn [3, 26]: 0
Corn plant response rating [3, 27]: 10
Corn plant response rating [3, 20]: 5
Plant response rating, Morningglory [4, 22]: 100
Plant response rating, Morningglory [4, 23]: 100
Plant response rating, Morningglory [4, 24]: 85
Plant response rating, Morningglory [4, 25]: 90
Plant response rating, Morningglory [4, 26]: 95
Morningglory plant response rating [4, 27]: 95
Morningglory plant response rating [4, 20]: 98
Plant response rating, Velvetleaf [5, 22]: 90
Plant response rating, Velvetleaf [5, 23]: 90
Plant response rating, Velvetleaf [5, 24]: 55
Plant response rating, Velvetleaf [5, 25]: 85
Plant response rating, Velvetleaf [5, 26]: 90
Velvetleaf plant response rating [5, 27]: 90
Velvetleaf plant response rating [5, 20]: 85
Plant response rating, Soybean [6, 22]: 10
Plant response rating, Soybean [6, 23]: 5
Plant response rating, Soybean [6, 24]: 0
Plant response rating, Soybean [6, 25]: 0
Plant response rating, Soybean [6, 26]: 100
Soybean plant response rating [6, 27]: 0
Soybean plant response rating [6, 20]: 0
Plant response rating, Wheat [7, 22]: 0
Plant response rating, Wheat [7, 23]: 0
Plant response rating, Wheat [7, 24]: 0
Plant response rating, Wheat [7, 25]: 0
Plant response rating, Wheat [7, 26]: 0
Wheat plant response rating [7, 27]: 0
Wheat plant response rating [7, 20]: 0
Plant response rating, Ragweed [8, 22]: 95
Plant response rating, Ragweed [8, 23]: 100
Plant response rating, Ragweed [8, 24]: 90
Plant response rating, Ragweed [8, 25]: 90
Plant response rating, Ragweed [8, 26]: 95
Ragweed plant response rating [8, 27]: 90
Ragweed plant response rating [8, 20]: 95
Plant response rating, Pigweed [9, 22]: 90
Plant response rating, Pigweed [9, 23]: 98
Plant response rating, Pigweed [9, 24]: 75
Plant response rating, Pigweed [9, 25]: 100
Plant response rating, Pigweed [9, 26]: 100
Pigweed plant response rating [9, 27]: 100
Pigweed plant response rating [9, 20]: 90
Plant response rating, Crabgrass, Large [10, 22]: 25
Plant response rating, Crabgrass, Large [10, 23]: 35
Plant response rating, Crabgrass, Large [10, 24]: 10
Plant response rating, Crabgrass, Large [10, 25]: 65
Plant response rating, Crabgrass, Large [10, 26]: 80
Crabgrass, Large plant response rating [10, 27]: 85
Crabgrass, Large plant response rating [10, 20]: 10
Barnyardgrass plant response rating [11, 21]: 25
Plant response rating, Barnyardgrass [11, 22]: 35
Plant response rating, Barnyardgrass [11, 23]: 45
Plant response rating, Barnyardgrass [11, 24]: 5
Plant response rating, Barnyardgrass [11, 25]: 35
Plant response rating, Barnyardgrass [11, 26]: 65
Barnyardgrass plant response rating [11, 27]: 85
Barnyardgrass plant response rating [11, 20]: 25
Plant response rating, Oilseed Rape [12, 22]: 50
Plant response rating, Oilseed Rape [12, 23]: 20
Plant response rating, Oilseed Rape [12, 24]: 30
Plant response rating, Oilseed Rape [12, 25]: 30
Plant response rating, Oilseed Rape [12, 26]: 85
Oilseed Rape plant response rating [12, 27]: 80
Oilseed Rape plant response rating [12, 20]: 50
Plant response rating, Waterhemp [13, 22]: 90
Plant response rating, Waterhemp [13, 23]: 90
Plant response rating, Waterhemp [13, 24]: 100
Plant response rating, Waterhemp [13, 25]: 100
Plant response rating, Waterhemp [13, 26]: 100
Waterhemp plant response rating [13, 27]: 100
Waterhemp plant response rating [13, 20]: 80
Plant response rating, Foxtail, Giant [14, 22]: 75
Plant response rating, Foxtail, Giant [14, 23]: 85
Plant response rating, Foxtail, Giant [14, 24]: 70
Plant response rating, Foxtail, Giant [14, 25]: 80
Plant response rating, Foxtail, Giant [14, 26]: 90
Foxtail, Giant plant response rating [14, 27]: 95
Foxtail, Giant plant response rating [14, 20]: 55
Plant response rating, Johnsongrass [15, 22]: 5
Plant response rating, Johnsongrass [15, 23]: 10
Plant response rating, Johnsongrass [15, 24]: 5
Plant response rating, Johnsongrass [15, 25]: 25
Plant response rating, Johnsongrass [15, 26]: 40
Johnsongrass plant response rating [15, 27]: 40
Johnsongrass plant response rating [15, 20]: 5
Blackgrass plant response rating [16, 21]: 10
Plant response rating, Blackgrass [16, 22]: 60
Plant response rating, Blackgrass [16, 23]: 65
Plant response rating, Blackgrass [16, 24]: 40
Plant response rating, Blackgrass [16, 25]: 30
Plant response rating, Blackgrass [16, 26]: 85
Blackgrass plant response rating [16, 27]: 90
Blackgrass plant response rating [16, 20]: 35
Plant response rating, Galium [17, 22]: 95
Plant response rating, Galium [17, 23]: 98
Plant response rating, Galium [17, 24]: 95
Plant response rating, Galium [17, 25]: 95
Plant response rating, Galium [17, 26]: 98
Galium plant response rating [17, 27]: 98
Galium plant response rating [17, 20]: 95
